These results are taken from patent US20240239786A1, “COMPOSITIONS AND METHODS FOR THE TREATMENT AND PREVENTION OF CANCER” (Yale University, priority 2021, published 2024).

The conditions of series [1]: cited from earlier work.
In a further series the test system is DNA synthesis. To be noted: cited from earlier work.
Series [2] in a line: Chemical stability of DB4: potency after pre-incubation in cell-free medium (EdU readout). It counts as physicochemical. The following applies: pre-incubated in cell-free medium at 37° C. up to 72 hr; PEO4 cells. As to the method: DB4 remained mostly active and intact after 72 hr in the culture medium. The dose response curve of DB4 in DNA synthesis inhibition in PEO4 cells was generated as determined by EdU flow cytometric analysis. […] PEO4 cells were treated with these media for 24 hr. The level of DNA synthesis inhibition was determined to interpolate and calculate % DB4 remaining compared with the control at 0 hr. FIG. 5B depicts representative results for remaining DB4 after DB4 (MW=496.1) was added to the culture medium at 50 μM for 0 hr, 24 hr, 48 hr, or 72 hr at 37° C. FIG. 5C depicts representative mass spectrum obtained from mass spectrometry that was run to detect the level of the 496.13 ion at 0 hr. FIG. 5D depicts representative mass spectrum obtained from mass spectrometry that was run to detect the level of the 496.13 ion at 72 hr.
To ensure that DB4 remained chemically stable, the time course study was performed by determining the potency of DB4 following a pre-incubation in the cell-free medium at 37° C. for up to 72 hr. Cells were treated for 24 hr with the medium containing pre-incubated DB4 and DNA synthesis was determined by the EdU incorporation assay.

Another series has as its system HR repair. Kind of series: HR reporter assay in SKOV3-DR-GFP cells. It counts as cell-based. The following applies: Homo sapiens, SK-OV-3, I-SceI-induced DSB, 48 hr, read-out: IC50 for inhibiting HR repair. An excerpt:
Cells were transfected with the ISceI-expressing plasmid and then treated various concentrations of DB4 for 48 hr. Cells were harvested, stained with 7-AAD, and analyzed by flow cytometry for GFP-positive cells indicative of HR repair activity. […] Cells were transfected with the ISceI-expressing plasmid and treated with various concentrations of DB4. Cells were harvested, stained with 7-AAD, and stained, and analyzed by flow cytometry for GFP-positive cells indicative of NHEJ activity. Data are means±SD (N=3). *, p<0.05; **, p<0.01, compared with the 0 μM control of ISceI-transected cells. […] Cells were also scored for nuclei containing equal or more than 10 distinct Rad51 foci to determine the percentage of cells positive for Rad51 foci. […] Protein was assessed by western blot analysis for the levels of γH2AX, p-H1, cyclin A2, p-CDK1/2, and HSC70. […] The band density of γH2AX indicative of DSBs was quantified by densitometry. […]
The ability of DB4 to inhibit endonuclease-induced DSB repair of reporter genes in SKOV3 cells was evaluated. […]
SKOV3-DR-GFP cells were established as described previously (Lin Z P et al., 2014, Molecular Cancer Res, 12:381-393). […] Cells were then trypsinized, stained with 7-AAD, and analyzed for the percentage of GFP-positive and […] cells by flow cytometry using an LSR II flow cytometer (BD Biosciences) and FlowJo software (Tree Star; Ashland, OR). […]
On the technique in general: In a reporter assay the amount or activity of a reporter protein is the signal.

The next series has as its system PD-L1. Description: PD-L1 level in BRCA-wild type PEO4 cells. It counts as cell-based. From the text: FIG. 21A depicts representative effects of DB4 and/or olaparib on BRCA-wild type PEO4 cells after 24, 48, and 72 hr. FIG. 21B depicts representative effects of DB4 and/or olaparib on the level of DSBs in BRCA-wild type PEO4 cells. FIG. 21C depicts representative effects of DB4 and/or olaparib on the level of PD-L1 protein in BRCA-wild type PEO4 cells.
FIG. 22 depicts representative effects of DB4 and/or olaparib on PD-L1-positive populations of BRCA-mutated PEO1 and BRCA-wild type PEO4 cells. DB4 and/or olaparib increased the PD-L1-positive population of BRCA-wild type PEO4 cells in the presence of IFNγ.

Bounds are passed on as bounds.

For `NC(=S)NN=Cc1ncccc1N` [triapine, 3-aminopyridine-2-carboxaldehyde-thiosemicarbazone, reference compound], the side effects entry in series [1] (patients) is “methemoglobinemia and dyspnea”. Also, in series [1] (phase I/II studies), the clinical response rates entry is listed as “more than 80%”. Moreover, in the series with DNA synthesis, the “time to halt DNA synthesis” value was at most 1 h.
Turning to `C=CCn1c(SCc2cccc(Cl)c2)nnc1C1CCN(Cc2nc3ccccc3s2)CC1` [DB4, 2-[(4-{4-allyl-5-[(3-chlorobenzyl)thio]-4H-1,2,4-triazol-3-yl}-1-piperidinyl)methyl]-1,3-benzothiazole], the “activity to inhibit DNA synthesis after pre-incubation” value in series [2] is “more than 82%”. For the same compound, the half-maximal inhibitory concentration (IC50) (commonly the concentration that inhibits the measured activity by half) in the series with HR repair is 5.4 µM. The PD-L1 protein level result with PD-L1 (BRCA-wild type EOC cells) is “up-regulation of PD-L1 protein”. In addition, in the series on PD-L1 (PEO4 cells in the presence of IFNγ), the PD-L1-positive population entry is given as “significantly increased”.
